Common to all, as to type: functional
For assay [1], the system named is Candida albicans. Briefly: Antifungal activity against Candida albicans CPCC 400616 assessed as inhibition of visible growth.
The subject of another assay is Cryptococcus neoformans. Nature of the assay: Antifungal activity against Cryptococcus neoformans CGMCC 2.3161 assessed as inhibition of visible growth.
The subject of a further assay is Pichia kudriavzevii. Nature of the assay: Antifungal activity against Candida krusei AS 2.1045 assessed as inhibition of visible growth.
The next assay relates to Nakaseomyces glabratus. Nature of the assay: Antifungal activity against Clinical isolate Candida glabrata assessed as inhibition of visible growth.
Another assay relates to Candida parapsilosis. Briefly: Antifungal activity against Candida parapsilosis GIM 2.190 assessed as inhibition of visible growth. Particulars: Lodderomyces parapsilosis.
For the next assay, the system named is Candida tropicalis. Nature of the assay: Antifungal activity against Candida tropicalis CGMCC 2.3739 assessed as inhibition of visible growth.
Assay [2] relates to Candida albicans. Briefly: Antifungal activity against Candida albicans SC 5314 assessed as inhibition of visible growth.

In brackets after ≈: the same amount, converted by molar mass.

For `CN(Cc1ccc(-c2ccc(C(F)(F)F)cc2)cc1)CC(O)(Cn1cncn1)c1ccc(F)cc1F` (stereo unspecified), the MIC80 worked out at 0.012 mg/L (≈ 0.0239 µM) in the assay with Candida albicans [1]; 0.05 mg/L (≈ 0.0995 µM) in the assay on Cryptococcus neoformans; 0.025 mg/L (≈ 0.0498 µM) with Pichia kudriavzevii; 0.025 mg/L (≈ 0.0498 µM) in the assay on Nakaseomyces glabratus; 0.006 mg/L (≈ 0.0119 µM) with Candida parapsilosis; 0.012 mg/L (≈ 0.0239 µM) in the assay on Candida tropicalis. Moreover, the MIC80 in the assay on Candida albicans [2] came to 0.012 mg/L (≈ 0.0239 µM).
Turning to `CN(Cc1ccc(-c2ccc(C(C)(C)C)cc2)cn1)CC(O)(Cn1cncn1)c1ccc(F)cc1F` (stereo unspecified), the MIC80 is 0.025 mg/L (≈ 0.0509 µM) in the assay on Candida albicans [1]; 0.012 mg/L (≈ 0.0244 µM) with Cryptococcus neoformans; 0.1 mg/L (≈ 0.203 µM) with Pichia kudriavzevii; 0.2 mg/L (≈ 0.407 µM) in the assay with Nakaseomyces glabratus; 0.012 mg/L (≈ 0.0244 µM) with Candida parapsilosis; 0.006 mg/L (≈ 0.0122 µM) in the assay with Candida tropicalis. Besides, the MIC80 with Candida albicans [2] turned out to be 0.012 mg/L (≈ 0.0244 µM).
Turning to `CN(Cc1ccc(-c2ccc(F)cc2)cn1)CC(O)(Cn1cncn1)c1ccc(F)cc1F` (stereo unspecified), the MIC80 in the assay on Candida albicans [1] is 0.012 mg/L (≈ 0.0265 µM); in the assay on Cryptococcus neoformans it was 0.1 mg/L (≈ 0.221 µM); in the assay with Pichia kudriavzevii it was 0.05 mg/L (≈ 0.11 µM); in the assay with Nakaseomyces glabratus, 0.4 mg/L (≈ 0.882 µM); with Candida parapsilosis, 0.012 mg/L (≈ 0.0265 µM); in the assay with Candida tropicalis it was 0.012 mg/L (≈ 0.0265 µM). The MIC80 with Candida albicans [2] was found to be 0.012 mg/L (≈ 0.0265 µM).
`CN(Cc1ccc(-c2ccc(Cl)cc2)cc1F)CC(O)(Cn1cncn1)c1ccc(F)cc1F` (stereo unspecified): the MIC80 amounted to 0.006 mg/L (≈ 0.0123 µM) in the assay on Candida albicans [1]; 0.012 mg/L (≈ 0.0246 µM) with Cryptococcus neoformans; 0.025 mg/L (≈ 0.0513 µM) in the assay with Pichia kudriavzevii; 0.025 mg/L (≈ 0.0513 µM) in the assay on Nakaseomyces glabratus; 0.006 mg/L (≈ 0.0123 µM) with Candida parapsilosis; 0.006 mg/L (≈ 0.0123 µM) in the assay with Candida tropicalis. The MIC80 in the assay on Candida albicans [2] stood at 0.006 mg/L (≈ 0.0123 µM).
Consider `CN(Cc1ccc(-c2ccc(C(F)(F)F)cc2)cn1)CC(O)(Cn1cncn1)c1ccc(F)cc1F` (stereo unspecified), for which the MIC80 in the assay on Candida albicans [1] was 0.012 mg/L (≈ 0.0238 µM); in the assay with Cryptococcus neoformans it was 0.025 mg/L (≈ 0.0497 µM); in the assay on Pichia kudriavzevii it was 0.05 mg/L (≈ 0.0993 µM); with Nakaseomyces glabratus, 0.05 mg/L (≈ 0.0993 µM); in the assay with Candida parapsilosis, 0.006 mg/L (≈ 0.0119 µM); in the assay with Candida tropicalis, 0.012 mg/L (≈ 0.0238 µM). The MIC80 in the assay with Candida albicans [2] stood at 0.012 mg/L (≈ 0.0238 µM).
Consider `CN(Cc1nc(-c2ccc(C(F)(F)F)cc2)cs1)CC(O)(Cn1cncn1)c1ccc(F)cc1F` (stereo unspecified), for which the MIC80 with Candida albicans [1] came out at 0.025 mg/L (≈ 0.0491 µM); in the assay with Cryptococcus neoformans, 0.2 mg/L (≈ 0.393 µM); in the assay on Pichia kudriavzevii it was 0.8 mg/L (≈ 1.57 µM); in the assay with Nakaseomyces glabratus it was 3.2 mg/L (≈ 6.28 µM); with Candida parapsilosis it was 0.012 mg/L (≈ 0.0236 µM); with Candida tropicalis, 0.025 mg/L (≈ 0.0491 µM). Further, the MIC80 in the assay on Candida albicans [2] is 0.012 mg/L (≈ 0.0236 µM).
Consider `CN(Cc1ccc(-c2ccc(C#N)cc2)cn1)CC(O)(Cn1cncn1)c1ccc(F)cc1F` (stereo unspecified), for which the MIC80 in the assay with Candida albicans [1] turned out to be 0.012 mg/L (≈ 0.0261 µM); in the assay with Cryptococcus neoformans it was 0.8 mg/L (≈ 1.74 µM); in the assay on Pichia kudriavzevii it was 0.2 mg/L (≈ 0.434 µM); in the assay with Nakaseomyces glabratus, 1.6 mg/L (≈ 3.47 µM); in the assay on Candida parapsilosis, 0.1 mg/L (≈ 0.217 µM); with Candida tropicalis, 0.012 mg/L (≈ 0.0261 µM). Also, the MIC80 with Candida albicans [2] amounted to 0.012 mg/L (≈ 0.0261 µM).
Regarding `CN(Cc1cnc(-c2ccc(C(F)(F)F)cc2)s1)CC(O)(Cn1cncn1)c1ccc(F)cc1F` (stereo unspecified), the MIC80 with Candida albicans [1] was 0.025 mg/L (≈ 0.0491 µM); in the assay on Cryptococcus neoformans it was 0.4 mg/L (≈ 0.785 µM); with Pichia kudriavzevii, 0.2 mg/L (≈ 0.393 µM); in the assay on Nakaseomyces glabratus, 0.2 mg/L (≈ 0.393 µM); with Candida parapsilosis, 0.05 mg/L (≈ 0.0981 µM); in the assay on Candida tropicalis it was 0.006 mg/L (≈ 0.0118 µM). For the same compound, in the assay on Candida albicans [2], the MIC80 came out at 0.025 mg/L (≈ 0.0491 µM).
As to `CN(Cc1cnc(-c2ccc(Cl)cc2)s1)CC(O)(Cn1cncn1)c1ccc(F)cc1F` (stereo unspecified), the MIC80 with Candida albicans [1] turned out to be 0.2 mg/L (≈ 0.42 µM); with Cryptococcus neoformans it was 1.6 mg/L (≈ 3.36 µM); in the assay with Pichia kudriavzevii, 1.6 mg/L (≈ 3.36 µM); in the assay on Nakaseomyces glabratus, 1.6 mg/L (≈ 3.36 µM); in the assay on Candida parapsilosis, 0.4 mg/L (≈ 0.84 µM); with Candida tropicalis, 0.4 mg/L (≈ 0.84 µM). In addition, the MIC80 with Candida albicans [2] turned out to be 0.2 mg/L (≈ 0.42 µM).
For `CN(Cc1ccc(-c2ccc(Cl)c(F)c2)cc1)CC(O)(Cn1cncn1)c1ccc(F)cc1F` (stereo unspecified), the MIC80 in the assay on Candida albicans [1] worked out at 0.006 mg/L (≈ 0.0123 µM); in the assay with Cryptococcus neoformans it was 0.012 mg/L (≈ 0.0246 µM); in the assay on Pichia kudriavzevii, 0.012 mg/L (≈ 0.0246 µM); with Nakaseomyces glabratus it was 0.025 mg/L (≈ 0.0513 µM); in the assay on Candida parapsilosis, 0.006 mg/L (≈ 0.0123 µM); with Candida tropicalis it was 0.006 mg/L (≈ 0.0123 µM). The MIC80 in the assay on Candida albicans [2] was 0.006 mg/L (≈ 0.0123 µM).
As for `CN(Cc1ccc(-c2ccc(C(F)(F)F)cc2)nc1)CC(O)(Cn1cncn1)c1ccc(F)cc1F` (stereo unspecified), the MIC80 with Candida albicans [1] is 0.012 mg/L (≈ 0.0238 µM); in the assay with Cryptococcus neoformans it was 0.025 mg/L (≈ 0.0497 µM); in the assay with Pichia kudriavzevii, 0.025 mg/L (≈ 0.0497 µM); with Nakaseomyces glabratus, 0.2 mg/L (≈ 0.397 µM); in the assay with Candida parapsilosis, 0.006 mg/L (≈ 0.0119 µM); with Candida tropicalis, 0.012 mg/L (≈ 0.0238 µM). The MIC80 with Candida albicans [2] was 0.012 mg/L (≈ 0.0238 µM).
`CN(Cc1ccc(-c2ccccc2Cl)cn1)CC(O)(Cn1cncn1)c1ccc(F)cc1F` (stereo unspecified): the MIC80 in the assay on Candida albicans [1] came out at 0.1 mg/L (≈ 0.213 µM); in the assay with Cryptococcus neoformans, 0.1 mg/L (≈ 0.213 µM); in the assay with Pichia kudriavzevii it was 0.4 mg/L (≈ 0.851 µM); in the assay with Nakaseomyces glabratus it was 0.8 mg/L (≈ 1.7 µM); in the assay on Candida parapsilosis, 0.025 mg/L (≈ 0.0532 µM); in the assay on Candida tropicalis it was 0.012 mg/L (≈ 0.0255 µM). Further, the MIC80 in the assay on Candida albicans [2] worked out at 0.025 mg/L (≈ 0.0532 µM).
On to `CN(Cc1ccc(-c2ccc(OC(F)(F)F)cc2)cc1)CC(O)(Cn1cncn1)c1ccc(F)cc1F` (stereo unspecified), for which the MIC80 in the assay with Candida albicans [1] is 0.012 mg/L (≈ 0.0231 µM); with Cryptococcus neoformans it was 0.012 mg/L (≈ 0.0231 µM); in the assay with Pichia kudriavzevii, 0.025 mg/L (≈ 0.0482 µM); in the assay on Nakaseomyces glabratus, 0.025 mg/L (≈ 0.0482 µM); with Candida parapsilosis, 0.006 mg/L (≈ 0.0116 µM); with Candida tropicalis it was 0.012 mg/L (≈ 0.0231 µM). For the same compound, in the assay with Candida albicans [2], the MIC80 was determined as 0.012 mg/L (≈ 0.0231 µM).

One may read the MIC80 as an inhibitory concentration at the 80% level, which refers to growth in some studies and to a panel of isolates in others.

The record behind these values is ChEMBL document CHEMBL6182926, “Design, Synthesis, and Biological Activity Evaluation of Deuterated Diphenyl Azole Alcohol-Based CYP51 Inhibitors” (J Med Chem, 2025).
